What follows are compounds tested against T1, TLR7 (Homo sapiens, UniProt Q9NYK1) (assay: huPBMC TLR7 Antagonist IFNα Assay). Settings: human PBMCs stimulated with ssRNA40 10 μg/mL (DOTAP), 14-16 hrs; IFNα2b AlphaLISA read-out.
T1 construct: Fresh blood was collected from normal human donors; endogenous in cells; host or cells: human PBMCs from fresh donor blood
T1 sequence (Q9NYK1 27-1049): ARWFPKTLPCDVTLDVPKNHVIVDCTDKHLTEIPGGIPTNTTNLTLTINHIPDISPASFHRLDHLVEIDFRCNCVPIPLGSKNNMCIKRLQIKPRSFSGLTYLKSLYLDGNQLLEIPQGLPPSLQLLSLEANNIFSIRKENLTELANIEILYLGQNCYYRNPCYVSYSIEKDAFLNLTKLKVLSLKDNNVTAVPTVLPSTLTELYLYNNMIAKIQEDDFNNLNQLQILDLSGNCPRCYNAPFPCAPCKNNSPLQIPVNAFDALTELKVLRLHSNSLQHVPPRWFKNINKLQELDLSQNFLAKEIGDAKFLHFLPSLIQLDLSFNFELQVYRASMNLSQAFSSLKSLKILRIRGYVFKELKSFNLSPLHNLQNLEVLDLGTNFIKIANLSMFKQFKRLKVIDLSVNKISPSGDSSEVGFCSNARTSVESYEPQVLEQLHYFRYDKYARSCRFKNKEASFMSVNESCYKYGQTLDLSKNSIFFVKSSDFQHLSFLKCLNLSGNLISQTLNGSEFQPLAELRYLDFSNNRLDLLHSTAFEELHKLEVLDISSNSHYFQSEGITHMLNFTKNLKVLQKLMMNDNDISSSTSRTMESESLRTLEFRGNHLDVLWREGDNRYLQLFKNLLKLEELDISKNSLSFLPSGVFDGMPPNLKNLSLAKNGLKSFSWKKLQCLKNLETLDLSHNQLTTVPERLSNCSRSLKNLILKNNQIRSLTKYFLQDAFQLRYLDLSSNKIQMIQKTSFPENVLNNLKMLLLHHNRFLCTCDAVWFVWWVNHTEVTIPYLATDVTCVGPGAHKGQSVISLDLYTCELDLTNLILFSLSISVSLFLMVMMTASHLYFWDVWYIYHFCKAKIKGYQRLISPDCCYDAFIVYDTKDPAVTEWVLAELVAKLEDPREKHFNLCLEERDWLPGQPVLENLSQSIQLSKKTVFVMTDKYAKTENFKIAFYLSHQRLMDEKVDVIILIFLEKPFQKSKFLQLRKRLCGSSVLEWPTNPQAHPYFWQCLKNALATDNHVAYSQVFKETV
Type: cell-based
Summary of the method: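 Human PBMCs from fresh donor blood (150,000 cells/well) stimulated 14–16 h at 37 °C with DOTAP-complexed ssRNA40 (final 1 μg/ml for TLR8, 10 μg/mL for TLR7) or ODN2216 (final 0.3 μM, TLR9), 0.25% DMSO, ten-point 1/3 compound dilutions. Supernatant IL-6 read by HTRF (TLR8); IFNα by IFNα2b AlphaLISA (TLR7/TLR9).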

| SMILES | IC50 [nM] |
| --- | --- |
| CCn1ncc2c(N3CCc4c(c(C)nn4CC45CCC(NC(=O)[C@@H]6COCCN6)(CC4)CC5)C3)cc(C)nc21 [compound 141, (S)-N-(4-((5-(1-ethyl-6-methyl-1H-pyrazolo[3,4-b]pyridin-4-yl)-3-methyl-4,5,6,7-tetrahydro-1H-pyrazolo[4,3-c]pyridin-1-yl)methyl)bicyclo[2.2.2]octan-1-yl)morpholine-3-carboxamide] | 32 |
| CNCCC(=O)NC12CCC(Cn3nc(C)c4c3CCN(c3cc(C)nc5c3cnn5C)C4)(CC1)CC2 [compound 142, N-(4-((5-(1,6-dimethyl-1H-pyrazolo[3,4-b]pyridin-4-yl)-3-methyl-4,5,6,7-tetrahydro-1H-pyrazolo[4,3-c]pyridin-1-yl)methyl)bicyclo[2.2.2]octan-1-yl)-3-(methylamino)propanamide] | 47 |
| Cc1cc(N2CCc3c(c(C)nn3CC34CCC(NC5CCC5)(CC3)CO4)C2)c2cnn(C)c2n1 [compound 143, N-cyclobutyl-1-((5-(1,6-dimethyl-1H-pyrazolo[3,4-b]pyridin-4-yl)-3-methyl-4,5,6,7-tetrahydro-1H-pyrazolo[4,3-c]pyridin-1-yl)methyl)-2-oxabicyclo[2.2.2]octan-4-amine] | 41 |
| Cc1nn(CC23CCC(NC4CCC4)(CC2)CC3)c2c1CN(c1ccnc(-c3ccccc3)c1)CC2 [compound 144, N-cyclobutyl-4-((3-methyl-5-(2-phenylpyridin-4-yl)-4,5,6,7-tetrahydro-1H-pyrazolo[4,3-c]pyridin-1-yl)methyl)bicyclo[2.2.2]octan-1-amine] | 73 |
| Cc1cc(N2CCc3c(c(C)nn3CC34CCC(NC(=O)OC(C)(C)C)(CC3)C4)C2)c2cnn(C)c2n1 [compound 148, tert-butyl (4-((5-(1,6-dimethyl-1H-pyrazolo[3,4-b]pyridin-4-yl)-3-methyl-4,5,6,7-tetrahydro-1H-pyrazolo[4,3-c]pyridin-1-yl)methyl)bicyclo[2.2.1]heptan-1-yl)carbamate] | 54 |

Reference: patent US20240376099A1, “COMPOUNDS AND COMPOSITIONS AS INHIBITORS OF ENDOSOMAL TOLL-LIKE RECEPTORS” (Novartis AG, priority 2016, published 2024)
